Experimental findings from patent publication US9029389B2 (Institut Pasteur Korea, priority 2011, dated 2015) are described below.

The structures appear in SMILES notation.

Data set [1] concerns the target T1, Human 5-lipoxygenase (Homo sapiens, UniProt P09917).
T1 construct: purchased Cayman 60402; host or cells: insect cells
T1 sequence (P09917 1-674): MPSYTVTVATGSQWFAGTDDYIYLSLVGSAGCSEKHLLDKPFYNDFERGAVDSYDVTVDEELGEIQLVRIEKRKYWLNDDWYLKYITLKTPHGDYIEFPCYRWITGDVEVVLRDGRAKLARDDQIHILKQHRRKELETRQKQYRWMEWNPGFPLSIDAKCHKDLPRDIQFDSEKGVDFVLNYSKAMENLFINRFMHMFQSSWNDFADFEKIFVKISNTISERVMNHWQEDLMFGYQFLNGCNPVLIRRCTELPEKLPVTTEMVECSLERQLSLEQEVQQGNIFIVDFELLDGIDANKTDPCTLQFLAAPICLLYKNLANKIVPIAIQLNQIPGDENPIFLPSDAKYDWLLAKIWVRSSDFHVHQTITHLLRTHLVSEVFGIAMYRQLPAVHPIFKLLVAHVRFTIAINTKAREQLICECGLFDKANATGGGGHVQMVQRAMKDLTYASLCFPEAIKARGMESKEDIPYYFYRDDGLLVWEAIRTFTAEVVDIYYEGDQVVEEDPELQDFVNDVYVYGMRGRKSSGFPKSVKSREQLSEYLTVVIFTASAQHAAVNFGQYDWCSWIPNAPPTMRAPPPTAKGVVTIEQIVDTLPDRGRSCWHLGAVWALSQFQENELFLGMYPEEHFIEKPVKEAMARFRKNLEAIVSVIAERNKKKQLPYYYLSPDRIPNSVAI
Nature of the data set: Activity of compounds against 5-LO enzyme (LTB4 measurement and/or fluorescence method). The format is biochemical. Particulars: for inhibition at 10 µM: 5-LO, single concentration of 10 uM in duplicate; for IC50: 6 or 11 point dose response in duplicate. A digest of the protocol: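 Two read-outs: LTB4 measured by EIA and/or LC/MS/MS with LTB4-d4 standard after 15 min RT compound preincubation with insect-cell 5-LO and a 5 min 37 °C reaction on 3 uM arachidonic acid (0.1 mM ATP, pH 7.4). The room-temperature fluorescence format used 20 uM H2DCFDA, 100 uM ATP, 3 uM arachidonic acid, 5 min; IC50 from 6/11-point curves.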

The term inhibition denotes the share of the control response that was lost under treatment. Higher therefore signals a response far below the control. Broadly, the melting point is the temperature, or range, at which the solid turns liquid. `CCc1nc2ccc(Cl)cn2c1C(=O)NCc1ccc(C2CCN(C(=O)Cc3ccc(F)cc3)CC2)cc1` [compound 327, 6-chloro-2-ethyl-N-(4-(1-(2-(4-fluorophenyl)acetyl)piperidin-4-yl)benzyl)imidazo[1,2-a]pyridine-3-carboxamide] registered a melting point of 216.2 to 220.7 °C. In data set [1], the inhibition at 10 µM lay within 40 to 69%.

Compound `CCc1nc2ccc(Cl)cn2c1C(=O)NCc1ccc(N2CCC(COC)CC2)cc1` [compound 247, 6-Chloro-2-ethyl-N-(4-(4-(methoxymethyl)piperidin-1-yl)benzyl)imidazo[1,2-a]pyridine-3-carboxamide] returned a melting point of 162.1 °C. This compound showed an inhibition at 10 µM in data set [1] of 40 to 69%.

`CCc1nc2ccc(Cl)cn2c1C(=O)OCc1ccc(Oc2ccccc2)cc1` [compound 163, 4-Phenoxybenzyl 6-chloro-2-ethylimidazo[1,2-a]pyridine-3-carboxylate] yielded a melting point of 123.3 to 123.8 °C. Besides, the inhibition at 10 µM in data set [1] is 40 to 69%.

The term IC50 denotes the concentration needed to halve the response being measured. The low end stands for greater potency in that assay, the high end for weaker potency in that assay. Regarding `CCc1nc2ccc(Cl)cn2c1CNc1ccc(-c2ccc(OC(F)(F)F)cc2)cc1` [compound 383, N-((6-chloro-2-ethylimidazo[1,2-a]pyridin-3-yl)methyl)-4′-(trifluoromethoxy)biphenyl-4-amine], the melting point was 102 °C. In addition, the IC50 in data set [1] was > 20 µM.

`CCc1nc2ccc(C(F)(F)F)cn2c1C(=O)NCc1ccc(N2CCOCC2)cc1` [compound 273, 2-Ethyl-N-(4-morpholinobenzyl)-6-(trifluoromethyl)imidazo[1,2-a]pyridine-3-carboxamide]: the melting point was found to be 207.6 °C. In addition, the inhibition at 10 µM in data set [1] was < 40%.

Regarding `CCc1nc2cc(Cl)ccn2c1C(=O)NCc1ccc(N2CCC(c3ccc(F)cc3)CC2)cc1` [compound 250, 7-Chloro-2-ethyl-N-(4-(4-(4-fluorophenyl)piperidin-1-yl)benzyl)imidazo[1,2-a]pyridine-3-carboxamide], the melting point amounted to 182.7 °C. This compound also registered an inhibition at 10 µM in data set [1] of 40 to 69%.

Take `CCc1nc2ccc(Cl)cn2c1C(=O)NCc1nc2ccc(Cl)cc2n1C` [compound 367, 6-chloro-N-((6-chloro-1-methyl-1H-benzo[d]imidazol-2-yl)methyl)-2-ethylimidazo[1,2-a]pyridine-3-carboxamide]: the melting point is > 220 °C. Besides, the inhibition at 10 µM in data set [1] is < 40%.

The compound `CCc1nc2c[n+]([O-])ccn2c1C(=O)NCc1ccc(-c2ccc(Cl)cc2)cc1` [compound 310, 3-(((4′-Chloro-[1,1′-biphenyl]-4-yl)methyl)carbamoyl)-2-ethylimidazo[1,2-a]pyrazine 7-oxide] gave a melting point of 238 °C. Further, in data set [1], the inhibition at 10 µM was in the range of 40 to 69% and the half-maximal inhibitory concentration (IC50) was in the range of 1 to 20 µM.

`CCc1nc2cc(Cl)ccn2c1C(=O)NCc1ccc(N2CC(C)CC(C)C2)cc1` (centres unmarked) [compound 198, 7-Chloro-N-(4-(3,5-dimethylpiperidin-1-yl)benzyl)-2-ethylimidazo[1,2-a]pyridine-3-carboxamide] showed a melting point of 181.5 to 182.8 °C. Moreover, in data set [1], the inhibition at 10 µM fell in the range of 40 to 69%.

`CCc1nc2cc(C)ccn2c1C(=O)NCc1ccc(N2CCOCC2)cc1` [compound 94, 2-Ethyl-7-methyl-N-(4-morpholinobenzyl)imidazo[1,2-a]pyridine-3-carboxamide] had a melting point of 190 °C. The inhibition at 10 µM in data set [1] is < 40%.

In the case of `CCc1nc2cc(Cl)ccn2c1C(=O)NCc1ccc(N2CCC(c3ccccc3)CC2)cc1` [compound 209, 7-Chloro-2-ethyl-N-(4-(4-phenylpiperidin-1-yl)benzyl)imidazo[1,2-a]pyridine-3-carboxamide], the melting point stood at 164.5 °C. Further, the inhibition at 10 µM in data set [1] was > 69%.

`CCc1nc2ccc(Cl)cn2c1C(=O)NCc1cccc(CC(=O)Nc2ccc(F)cc2)c1` [compound 355, 6-chloro-2-ethyl-N-(3-(2-((4-fluorophenyl)amino)-2-oxoethyl)benzyl)imidazo[1,2-a]pyridine-3-carboxamide]: the melting point is > 198.8 °C (dec.). In data set [1], the inhibition at 10 µM is < 40%.

Turning to `CCc1nc2cc(C(F)(F)F)ccn2c1C(=O)NCc1ccc(N2CCOCC2)cc1` [compound 290, 2-Ethyl-N-(4-morpholinobenzyl)-7-(trifluoromethyl)imidazo[1,2-a]pyridine-3-carboxamide], the melting point was 174.1 °C. For the same compound, the inhibition at 10 µM in data set [1] was < 40%.

As to `CCc1nc2cc(Cl)ccn2c1C(=O)NCc1ccc(N2CCCCC2C)cc1` (centres unmarked) [compound 252, 7-chloro-2-ethyl-N-(4-(2-methylpiperidin-1-yl)benzyl)imidazo[1,2-a]pyridine-3-carboxamide], the melting point came out at 117.9 °C. In addition, the inhibition at 10 µM in data set [1] is < 40%.

In the case of `CCc1nc2cc(Cl)ccn2c1C(=O)NCc1ccc(N2CCC(C(N)=O)CC2)cc1` [compound 292, N-(4-(4-Carbamoylpiperidin-1-yl)benzyl)-7-chloro-2-ethylimidazo[1,2-a]pyridine-3-carboxamide], the melting point stood at 244 °C. The inhibition at 10 µM in data set [1] was < 40%.

Consider `CCc1nc2cc(Cl)ccn2c1C(=O)NCc1ccc(N2CCC(COc3ccc(F)cc3)CC2)cc1` [compound 245, 7-Chloro-2-ethyl-N-(4-(4-((4-fluorophenoxy)methyl)piperidin-1-yl)benzyl)imidazo[1,2-a]pyridine-3-carboxamide], for which the melting point was determined as 186.5 °C. In addition, the inhibition at 10 µM in data set [1] is < 40%.

As for `CCc1nc2cc(Cl)ccn2c1C(=O)NCc1ccc(C2CCOCC2)cc1` [compound 364, 7-chloro-2-ethyl-N-(4-(tetrahydro-2H-pyran-4-yl)benzyl)imidazo[1,2-a]pyridine-3-carboxamide], the melting point was > 156.6 °C (dec.). Also, the inhibition at 10 µM in data set [1] was < 40%.

The compound `CCc1nc2cc(N3CCN(c4ccccc4)CC3)ccn2c1C(=O)NCc1ccc(C(F)(F)F)cc1` [compound 246, 2-Ethyl-7-(4-phenylpiperazin-1-yl)-N-(4-(trifluoromethyl)benzyl)imidazo[1,2-a]pyridine-3-carboxamide] showed a melting point of 235.2 °C. In data set [1], the inhibition at 10 µM is < 40%.

With `CCc1nc2cc(Cl)ccn2c1C(=O)NCc1ccc(CC2CCOCC2)cc1` [compound 359, 7-chloro-2-ethyl-N-(4-((tetrahydro-2H-pyran-4-yl)methyl)benzyl)imidazo[1,2-a]pyridine-3-carboxamide], the melting point is > 125.9 °C (dec.). Moreover, in data set [1], the inhibition at 10 µM is < 40%.

Turning to `CCNC(=O)c1c(CC)nc2ccc(Cl)cn12` [compound 238, 6-Chloro-N,2-diethylimidazo[1,2-a]pyridine-3-carboxamide], the melting point turned out to be 176.7 °C. The inhibition at 10 µM in data set [1] was < 40%.

As to `Cc1nc2ccc(Cl)cn2c1C(=O)NCc1ccc(OC(F)(F)F)cc1` [compound 184, 6-Chloro-2-methyl-N-(4-(trifluoromethoxy)benzyl)imidazo[1,2-a]pyridine-3-carboxamide], the melting point was 192 to 193 °C. The inhibition at 10 µM in data set [1] is < 40%.

Turning to `CCc1nc2ccccn2c1C(=O)NCc1ccc(N2CCN(c3ccc(F)cc3)CC2)cc1` [compound 227, 2-Ethyl-N-(4-(4-(4-fluorophenyl)piperazin-1-yl)benzyl)imidazo[1,2-a]pyridine-3-carboxamide], the melting point turned out to be 189.2 °C. In data set [1], the inhibition at 10 µM is > 69% and the IC50 fell in the range of 1 to 20 µM.

Consider `CCc1nc2cc(Br)ccn2c1C(=O)NCc1ccc(N2CCN(c3ccc(F)cc3)CC2)cc1` [compound 304, 7-Bromo-2-ethyl-N-(4-(4-(4-fluorophenyl)piperazin-1-yl)benzyl)imidazo[1,2-a]pyridine-3-carboxamide], for which the melting point stood at 214.6 °C. Also, in data set [1], the inhibition at 10 µM was > 69% and the IC50 was in the range of 1 to 20 µM.

For `CCC1=C(C(=O)NCc2ccc(N3CCC(C)(C)CC3)cc2)N2C=CC(Cl)=CC2N1` (centres unmarked) [compound 211, 7-Chloro-N-(4-(4,4-dimethylpiperidin-1-yl)benzyl)-2-ethyl-1,8a-dihydroimidazo[1,2-a]pyridine-3-carboxamide], the melting point is 121.3 °C. Further, in data set [1], the inhibition at 10 µM was > 69% and the IC50 lay within 1 to 20 µM.

In turn, `CCc1nc2cc(Cl)ccn2c1C(=O)NCc1ccc(Oc2ccc(F)cc2)nc1` [compound 188, 7-Chloro-2-ethyl-N-((6-(4-fluorophenoxy)pyridin-3-yl)methyl)imidazo[1,2-a]pyridine-3-carboxamide] returned a melting point of 167 to 167.6 °C. The inhibition at 10 µM in data set [1] was 40 to 69%.

The compound `CCc1nc2c(OC(F)F)cccn2c1C(=O)NCc1ccc(N2CCOCC2)cc1` [compound 279, 8-(Difluoromethoxy)-2-ethyl-N-(4-morpholinobenzyl)imidazo[1,2-a]pyridine-3-carboxamide] showed a melting point of 163 °C. Moreover, the inhibition at 10 µM in data set [1] is < 40%.
